Where only a bound is given, the exact number is not on record here.

Experiment [1] has as its target T1, native (untagged) murine PKCε (Mus musculus, UniProt P16054).
T1 sequence (P16054 1-737): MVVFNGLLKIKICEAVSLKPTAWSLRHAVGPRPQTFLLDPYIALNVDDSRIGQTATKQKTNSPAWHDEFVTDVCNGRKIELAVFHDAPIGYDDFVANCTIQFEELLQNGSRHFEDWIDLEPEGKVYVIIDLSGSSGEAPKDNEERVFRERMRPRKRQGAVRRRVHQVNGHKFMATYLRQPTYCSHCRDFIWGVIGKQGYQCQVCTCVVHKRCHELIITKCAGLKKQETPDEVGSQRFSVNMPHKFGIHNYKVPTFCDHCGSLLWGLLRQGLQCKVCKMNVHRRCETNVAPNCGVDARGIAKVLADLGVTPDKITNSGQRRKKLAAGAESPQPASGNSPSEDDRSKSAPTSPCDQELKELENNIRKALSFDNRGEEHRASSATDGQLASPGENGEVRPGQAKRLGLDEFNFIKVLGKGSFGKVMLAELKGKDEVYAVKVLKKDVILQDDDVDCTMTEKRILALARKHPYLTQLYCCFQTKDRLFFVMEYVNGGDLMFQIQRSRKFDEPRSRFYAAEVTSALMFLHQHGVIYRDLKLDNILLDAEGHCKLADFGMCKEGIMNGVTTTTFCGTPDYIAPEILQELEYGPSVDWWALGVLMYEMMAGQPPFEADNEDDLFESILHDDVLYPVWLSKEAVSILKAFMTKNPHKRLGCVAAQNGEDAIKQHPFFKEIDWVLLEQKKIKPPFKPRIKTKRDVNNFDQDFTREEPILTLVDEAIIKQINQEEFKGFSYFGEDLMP
As to the kind of experiment: FPCBA saturation binding of probe 1, native PKCε (IRES-mVenus) in HEK293 cells.

Experiment [2] has as its target native (untagged) murine PKCθ (Mus musculus, UniProt Q02111). As to the kind of experiment: FPCBA saturation binding of probe 1, native PKCθ (IRES-mVenus) in HEK293 cells.
The subject of the next experiment is Jurkat cells. As to the kind of experiment: Cellular viability assay, Jurkat lymphocytes, 48 h, flow cytometry (Example 2). It is filed as cell-based. As for the experimental part:
The impact of membrane transporters on the toxicity profile of 49 was also studied.
Jurkat lymphocytes were seeded into a 96-well plate in fresh complete medium at 2.5×10^5 cells/mL and 200 μL per well. All compounds were serial diluted in DMSO and added to complete media to achieve a 1:1000 dilution factor (0.10% DMSO in each well). […] The total cell-count for each well was determined by flow cytometry and staining with propidium iodide was used to identify populations of live cells (only dead cells are stained by PI). Counts of viable cells for each treatment, determined in triplicate, were used to generate dose-response curves. These curves were fitted with non-linear regression using an inhibitor vs. response variable slope […] model (GraphPad Prism 9) to determine IC50 values.
For orientation: Flow cytometry measures light scatter and fluorescence of single cells or particles in a stream.

Experiment [3] has as its target T2, native (untagged) murine PKCζ (Mus musculus, UniProt Q02956).
T2 sequence (Q02956 1-592): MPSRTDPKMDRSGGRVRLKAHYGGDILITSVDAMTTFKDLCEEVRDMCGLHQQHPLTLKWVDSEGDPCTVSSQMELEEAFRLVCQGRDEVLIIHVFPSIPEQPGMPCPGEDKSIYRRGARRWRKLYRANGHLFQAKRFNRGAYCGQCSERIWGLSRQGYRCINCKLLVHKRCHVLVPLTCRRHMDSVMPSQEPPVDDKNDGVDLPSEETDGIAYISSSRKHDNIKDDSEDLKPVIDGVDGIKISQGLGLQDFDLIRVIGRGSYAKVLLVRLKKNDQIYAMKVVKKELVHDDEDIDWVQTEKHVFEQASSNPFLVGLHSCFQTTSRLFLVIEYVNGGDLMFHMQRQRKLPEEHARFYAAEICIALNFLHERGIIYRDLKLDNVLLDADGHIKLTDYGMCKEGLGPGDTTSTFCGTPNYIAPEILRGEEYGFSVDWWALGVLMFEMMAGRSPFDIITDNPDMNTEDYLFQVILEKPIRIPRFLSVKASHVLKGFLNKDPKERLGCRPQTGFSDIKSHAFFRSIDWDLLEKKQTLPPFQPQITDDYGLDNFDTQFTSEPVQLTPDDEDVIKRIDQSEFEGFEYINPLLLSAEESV
Put plainly: FPCBA competition with probe 1, native PKCζ in HEK293 cells. It is filed as binding. The conditions noted are these: probe 1 400 nM, BIM1 2 μM, 2 h at 37° C. Set-up: expressed in transfected cells; host or cells: HEK293 (ATCC CRL-1573), transient transfection with pIRES-mVenus carrying the PKC gene.

For experiment [4], the target named is T1, native (untagged) murine PKCε. Put plainly: FPCBA competition with probe 1, native PKCε in HEK293 cells. It counts as binding. Details: For coexpression of full-length unmodified PKC proteins with mVenus as an independent marker; expressed in transfected cells; host or cells: HEK293 (transient, pIRES-mVenus). The following applies: read-out: Cellular Ki for native PKCε (95% confidence interval); probe 1 400 nM, BIM1 2 μM, 2 h at 37° C.

Experiment [5] concerns the target T3, native (untagged) murine PKCδ (Mus musculus, UniProt P28867).
T3 construct: For coexpression of full-length unmodified PKC proteins with mVenus as an independent marker; expressed in transfected cells; host or cells: HEK293 (transient, pIRES-mVenus)
As to the kind of experiment: FPCBA competition with probe 1, native PKCδ in HEK293 cells. It is filed as binding. The following applies: read-out: Cellular Ki for native PKCδ (95% confidence interval); probe 1 400 nM, BIM1 2 μM, 2 h at 37° C.

For experiment [6], the target named is native (untagged) murine PKCη (Mus musculus, UniProt P23298). Put plainly: FPCBA competition with probe 1, native PKCη in HEK293 cells. It counts as binding. Set-up: expressed in transfected cells; host or cells: HEK293 (ATCC CRL-1573), transient transfection with pIRES-mVenus carrying the PKC gene. The following applies: read-out: Cellular Ki for native PKCη (95% confidence interval); probe 1 400 nM, BIM1 2 μM, 2 h at 37° C.
native (untagged) murine PKCη, sequence (P23298 whole entry): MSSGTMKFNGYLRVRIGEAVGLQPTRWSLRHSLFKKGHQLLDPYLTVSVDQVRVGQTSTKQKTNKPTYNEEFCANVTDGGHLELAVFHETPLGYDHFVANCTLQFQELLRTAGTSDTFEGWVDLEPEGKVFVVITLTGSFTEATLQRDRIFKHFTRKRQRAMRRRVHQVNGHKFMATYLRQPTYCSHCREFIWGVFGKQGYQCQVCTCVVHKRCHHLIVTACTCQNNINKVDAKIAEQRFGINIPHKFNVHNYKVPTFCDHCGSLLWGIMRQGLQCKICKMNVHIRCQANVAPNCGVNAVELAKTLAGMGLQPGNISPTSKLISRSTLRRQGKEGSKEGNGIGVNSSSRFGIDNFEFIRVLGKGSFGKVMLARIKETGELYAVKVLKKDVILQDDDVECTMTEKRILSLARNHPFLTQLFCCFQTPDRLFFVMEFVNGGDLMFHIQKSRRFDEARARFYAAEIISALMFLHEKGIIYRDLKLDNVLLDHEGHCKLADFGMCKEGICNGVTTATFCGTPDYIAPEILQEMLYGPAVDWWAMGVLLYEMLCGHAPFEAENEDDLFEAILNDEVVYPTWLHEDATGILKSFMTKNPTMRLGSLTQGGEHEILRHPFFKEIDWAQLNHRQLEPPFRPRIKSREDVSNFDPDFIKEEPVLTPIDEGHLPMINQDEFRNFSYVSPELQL

For experiment [7], the target named is T4, native (untagged) murine PKCβI (Mus musculus, UniProt P68404).
T4 construct: For coexpression of full-length unmodified PKC proteins with mVenus as an independent marker; expressed in transfected cells; host or cells: HEK293 (transient, pIRES-mVenus)
T4 sequence (P68404 2-673 isoform P68404-2): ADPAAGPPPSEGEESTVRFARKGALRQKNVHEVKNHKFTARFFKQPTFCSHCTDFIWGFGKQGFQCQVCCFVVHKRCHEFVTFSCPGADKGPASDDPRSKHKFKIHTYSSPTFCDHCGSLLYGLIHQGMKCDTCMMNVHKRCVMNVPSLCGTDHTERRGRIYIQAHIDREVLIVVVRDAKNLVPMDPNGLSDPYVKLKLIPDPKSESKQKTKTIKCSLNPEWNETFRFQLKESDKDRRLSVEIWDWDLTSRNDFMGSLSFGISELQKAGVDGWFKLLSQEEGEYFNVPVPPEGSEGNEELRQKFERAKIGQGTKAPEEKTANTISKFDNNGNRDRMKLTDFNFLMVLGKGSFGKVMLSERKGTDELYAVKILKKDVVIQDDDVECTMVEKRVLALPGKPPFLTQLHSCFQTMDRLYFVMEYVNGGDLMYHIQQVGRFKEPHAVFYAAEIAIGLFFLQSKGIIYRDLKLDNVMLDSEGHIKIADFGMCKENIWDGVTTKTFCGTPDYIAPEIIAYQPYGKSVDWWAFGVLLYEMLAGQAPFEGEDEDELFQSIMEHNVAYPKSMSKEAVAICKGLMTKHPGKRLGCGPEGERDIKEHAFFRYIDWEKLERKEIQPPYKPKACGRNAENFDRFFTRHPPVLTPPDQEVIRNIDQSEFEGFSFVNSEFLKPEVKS
As to the kind of experiment: FPCBA competition with probe 1, native PKCβI in HEK293 cells. It counts as binding. The following applies: read-out: Cellular Ki for native PKCβI (95% confidence interval); probe 1 400 nM, BIM1 2 μM, 2 h at 37° C.

T3 sequence (P28867 whole entry): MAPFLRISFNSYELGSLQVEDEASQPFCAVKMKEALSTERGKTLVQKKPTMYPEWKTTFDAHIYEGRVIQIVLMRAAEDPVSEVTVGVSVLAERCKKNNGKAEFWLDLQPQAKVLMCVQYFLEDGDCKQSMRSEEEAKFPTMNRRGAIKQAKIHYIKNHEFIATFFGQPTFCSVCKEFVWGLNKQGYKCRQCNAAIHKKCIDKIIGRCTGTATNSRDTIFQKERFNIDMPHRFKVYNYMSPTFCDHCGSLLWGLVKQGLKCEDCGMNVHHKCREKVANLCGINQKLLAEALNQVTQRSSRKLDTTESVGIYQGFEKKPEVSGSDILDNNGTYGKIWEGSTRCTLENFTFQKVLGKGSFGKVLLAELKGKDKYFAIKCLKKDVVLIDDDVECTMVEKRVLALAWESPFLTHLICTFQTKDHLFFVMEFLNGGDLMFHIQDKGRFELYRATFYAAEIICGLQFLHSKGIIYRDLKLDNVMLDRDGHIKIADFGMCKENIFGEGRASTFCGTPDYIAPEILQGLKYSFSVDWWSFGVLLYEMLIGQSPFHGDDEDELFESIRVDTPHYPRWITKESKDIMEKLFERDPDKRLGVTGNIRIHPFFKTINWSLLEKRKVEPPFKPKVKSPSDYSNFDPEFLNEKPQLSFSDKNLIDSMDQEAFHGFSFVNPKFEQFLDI
native (untagged) murine PKCθ, sequence (Q02111 whole entry): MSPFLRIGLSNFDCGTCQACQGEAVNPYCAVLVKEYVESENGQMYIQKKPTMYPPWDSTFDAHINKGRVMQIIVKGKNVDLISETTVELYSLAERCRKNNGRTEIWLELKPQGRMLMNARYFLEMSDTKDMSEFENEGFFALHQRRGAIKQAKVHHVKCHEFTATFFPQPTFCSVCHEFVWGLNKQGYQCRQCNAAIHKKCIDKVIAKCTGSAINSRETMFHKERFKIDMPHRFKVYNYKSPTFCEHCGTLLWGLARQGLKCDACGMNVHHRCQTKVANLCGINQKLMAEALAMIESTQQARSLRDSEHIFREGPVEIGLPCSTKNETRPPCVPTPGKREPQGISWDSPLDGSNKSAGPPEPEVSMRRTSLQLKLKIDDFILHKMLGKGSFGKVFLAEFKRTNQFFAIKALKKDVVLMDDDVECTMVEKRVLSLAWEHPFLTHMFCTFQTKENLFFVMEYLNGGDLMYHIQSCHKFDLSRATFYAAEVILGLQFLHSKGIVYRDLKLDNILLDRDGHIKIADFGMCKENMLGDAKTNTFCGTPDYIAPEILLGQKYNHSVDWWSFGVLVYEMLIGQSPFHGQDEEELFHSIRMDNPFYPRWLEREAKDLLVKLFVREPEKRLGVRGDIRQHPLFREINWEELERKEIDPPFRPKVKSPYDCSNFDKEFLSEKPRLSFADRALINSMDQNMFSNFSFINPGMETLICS

Take `CCCCCCN(CCCCCCCCCCCCNC(=O)c1cc2cc(F)c(O)c(F)c2oc1=O)C(=O)O[C@@]12[C@H](O)[C@@H](C)[C@@]3(O)[C@@H](C=C(CO)C[C@]4(O)C(=O)C(C)=C[C@@H]34)[C@@H]1C2(C)C` [probe 1, (1aR,1bS,4aR,7aS,7bS,8R,9R,9aS)-4a,7b,9-trihydroxy-3-(hydroxymethyl)-1,1,6,8-tetramethyl-5-oxo-1,1a,1b,4,4a,5,7a,7b,8,9-decahydro-9aH-cyclopropa[3,4]benzo[1,2-e]azulen-9a-yl (12-(6,8-difluoro-7-hydroxy-2-oxo-2H-chromene-3-carboxamido)dodecyl)(hexyl)carbamate]: the Kd in experiment [1] came out at 568 ± 141 nM; in experiment [2], 1050 ± 125 nM. Moreover, in the experiment on Jurkat cells, the “activity relative to 33” value is greater than 20 fold. In the experiment on Jurkat cells (Homo sapiens, Jurkat, read-out: toxicity towards Jurkat cells, IC50), the IC50 was determined as 500 nM.

Regarding `CCC/C=C/C=C/C(=O)O[C@H]1/C(=C/C(=O)OC)C[C@H]2C[C@H]([C@@H](C)O)OC(=O)C[C@H](O)C[C@@H]3C[C@H](OC(C)=O)C(C)(C)[C@](O)(C[C@@H]4C/C(=C/C(=O)OC)C[C@H](/C=C/C(C)(C)[C@]1(O)O2)O4)O3` [bryostatin 1], the “Cellular Ki for native PKCζ” value in experiment [3] was “No binding”. The Ki in experiment [4] worked out at 16 nM; in experiment [5], 20 nM; in experiment [6], 9 nM; in experiment [7], 4 nM.

Usually Kd stands for a measure of binding affinity in units of concentration. A higher Kd goes with weaker binding. By IC50 is commonly meant the concentration that gives 50% inhibition. What is called Ki is a measure of affinity in units of concentration, obtained from inhibition or displacement.
